Experimental data taken from patent publication US10730863B2, “Bridged bicyclic compounds as farnesoid X receptor modulators” (BRISTOL-MYERS SQUIBB COMPANY, priority 2017, dated 2020).

Biological target: FXR (Homo sapiens (Human), UniProt Q96RI1)
Assay: FXR EC50 (FXR agonist activity reported with each example)
Format: cell-based

Chain of FXR (Q96RI1 262-486): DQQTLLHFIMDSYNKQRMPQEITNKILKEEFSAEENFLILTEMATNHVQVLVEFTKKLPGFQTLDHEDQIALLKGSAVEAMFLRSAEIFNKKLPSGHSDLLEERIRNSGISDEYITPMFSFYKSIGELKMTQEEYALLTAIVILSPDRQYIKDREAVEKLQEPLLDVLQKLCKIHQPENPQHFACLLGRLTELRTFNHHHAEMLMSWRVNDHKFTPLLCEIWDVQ

Compound | EC50
O=C(O)c1cccc2nc(C34CCC(/C=C\c5c(-c6c(Cl)cccc6Cl)noc5C5CC5)(CC3)CC4)sc12 [Example 502, (Z)-2-(4-(2-(5-cyclopropyl-3-(2,6-dichlorophenyl)isoxazol-4-yl)vinyl)bicyclo[2.2.2]octan-1-yl)benzo[d]thiazole-7-carboxylic acid] | 1500 nM
O=C(O)c1ccc(NC(=O)C23CCC(COCc4c(-c5c(Cl)cccc5Cl)noc4C4CC4)(CC2)CC3)c(Cl)c1 [Example 170, 3-chloro-4-(4-(((5-cyclopropyl-3-(2,6-dichlorophenyl)isoxazol-4-yl)methoxy)methyl)bicyclo[2.2.2]octane-1-carboxamido)benzoic acid] | 636 nM
O=C(O)c1ccc(C23CCC(COCc4c(-c5c(Cl)cccc5Cl)noc4C4CC4)(CC2)CC3)cc1 [Example 174, 4-(4-(((5-cyclopropyl-3-(2,6-dichlorophenyl)isoxazol-4-yl)methoxy)methyl)bicyclo[2.2.2]octan-1-yl)benzoic acid] | 210 nM
COc1ccc(-c2noc(C34CCC(OCc5c(-c6c(Cl)cncc6Cl)noc5C5CC5)(CC3)CC4)n2)c(F)c1C(=O)O [Example 250, 3-(5-(4-((5-cyclopropyl-3-(3,5-dichloropyridin-4-yl)isoxazol-4-yl)methoxy)bicyclo[2.2.2]octan-1-yl)-1,2,4-oxadiazol-3-yl)-2-fluoro-6-methoxybenzoic acid] | 730 nM
COc1cc(OCC23CCC(OCc4c(-c5c(Cl)cncc5Cl)noc4C4CC4)(CC2)CC3)cnc1C(=O)O [Example 335, 5-((4-((5-cyclopropyl-3-(3,5-dichloropyridin-4-yl)isoxazol-4-yl)methoxy)bicyclo[2.2.2]octan-1-yl)methoxy)-3-methoxypicolinic acid] | 170 nM
O=C(O)c1ccc(C23CCC(CNc4c(-c5c(Cl)cccc5Cl)noc4C4CC4)(CC2)CO3)cc1 [Example 203, 4-(4-(((5-cyclopropyl-3-(2,6-dichlorophenyl)isoxazol-4-yl)amino)methyl)-2-oxabicyclo[2.2.2]octan-1-yl)benzoic acid] | 420 nM
O=C(O)c1cc(OC(F)F)c2cc(C#CC34CCC(OCc5c(-c6c(Cl)cncc6Cl)noc5C5CC5)(CC3)CC4)ccc2n1 [Example 376] | 27 nM
O=C(O)c1cc(C#CC23CCC(OCc4c(-c5c(Cl)cncc5Cl)noc4C4CC4)(CC2)CC3)cn2ccnc12 [Example 404] | 140 nM
O=C(O)c1sc(OCC23CCC(OCc4c(-c5c(Cl)cncc5Cl)noc4C4CC4)(CC2)CC3)nc1C(F)(F)F [Example 317] | 210 nM
O=C(O)c1cccc(C#CC23CCC(OCc4c(-c5c(Cl)cccc5Cl)noc4C4CC4)(CC2)CC3)c1 [Example 130, 3-((4-((5-cyclopropyl-3-(2,6-dichlorophenyl)isoxazol-4-yl)methoxy)bicyclo[2.2.2]octan-1-yl)ethynyl)benzoic acid] | 68 nM
O=C(O)c1cccc(-c2noc(C34CCC(COCc5c(-c6c(Cl)cccc6Cl)noc5C5CC5)(CC3)CC4)n2)c1 [Example 151, 3-(5-(4-(((5-cyclopropyl-3-(2,6-dichlorophenyl)isoxazol-4-yl)methoxy)methyl)bicyclo[2.2.2]octan-1-yl)-1,2,4-oxadiazol-3-yl)benzoic acid] | 150 nM
O=C(O)c1cc(OC(CO)CCl)c2cc(OCC34CCC(OCc5c(-c6c(Cl)cncc6Cl)noc5C5CC5)(CC3)CC4)ccc2n1 (stereo not drawn) [Example 354, 4-((1-chloro-3-hydroxypropan-2-yl)oxy)-6-((4-((5-cyclopropyl-3-(3,5-dichloropyridin-4-yl)isoxazol-4-yl)methoxy)bicyclo[2.2.2]octan-1-yl)methoxy)quinoline-2-carboxylic acid] | 200 nM
O=C(O)c1cc(F)cc2nc(OCC34CCC(/C=C/c5c(-c6c(Cl)cncc6Cl)noc5C5CC5)(CC3)CC4)sc12 [Example 469, (E)-2-((4-(2-(5-cyclopropyl-3-(3,5-dichloropyridin-4-yl)isoxazol-4-yl)vinyl)bicyclo[2.2.2]octan-1-yl)methoxy)-5-fluorobenzo[d]thiazole-7-carboxylic acid] | 190 nM
COc1c(C(=O)O)cc(F)cc1-c1noc(C23CCC(OCc4c(-c5c(Cl)cncc5Cl)noc4C4CC4)(CC2)CC3)n1 [Example 245, 3-(5-(4-((5-cyclopropyl-3-(3,5-dichloropyridin-4-yl)isoxazol-4-yl)methoxy)bicyclo[2.2.2]octan-1-yl)-1,2,4-oxadiazol-3-yl)-5-fluoro-2-methoxybenzoic acid] | 46 nM
CC(C)Oc1cc(C(=O)O)nc2ccc(OCC34CCC(OCc5c(-c6c(Cl)cncc6Cl)noc5C5CC5)(CC3)CC4)cc12 [Example 328, 6-((4-((5-cyclopropyl-3-(3,5-dichloropyridin-4-yl)isoxazol-4-yl)methoxy)bicyclo[2.2.2]octan-1-yl)methoxy)-4-isopropoxyquinoline-2-carboxylic acid] | 15 nM
COc1ccc(C(=O)O)c2ccc(OCC34CCC(OCc5c(-c6c(Cl)cncc6Cl)noc5C5CC5)(CC3)CC4)nc12 [Example 342] | 33 nM
O=C(O)c1cc(C#CC23CCC(OCc4c(-c5c(Cl)cncc5Cl)noc4C4CC4)(CC2)CC3)cc(OC(F)(F)F)c1 [Example 378] | 130 nM

Compound | EC50
O=C(O)c1ccc2nc(C34CCC(/C=C/c5c(-c6ccccc6OC(F)(F)F)noc5C5CC5)(CC3)CC4)sc2c1 [Example 182, (E)-2-(4-(2-(5-cyclopropyl-3-(2-(trifluoromethoxy)phenyl)isoxazol-4-yl)vinyl)bicyclo[2.2.2]octan-1-yl)benzo[d]thiazole-6-carboxylic acid] | 100 nM
O=C(O)c1cc(OCC23CCC(/C=C/c4c(-c5c(Cl)cncc5Cl)noc4C4CC4)(CC2)CO3)cc(OC(F)F)c1 [Example 499, (E)-3-((4-(2-(5-cyclopropyl-3-(3,5-dichloropyridin-4-yl)isoxazol-4-yl)vinyl)-2-oxabicyclo[2.2.2]octan-1-yl)methoxy)-5-(difluoromethoxy)benzoic acid] | 160 nM
O=C(O)c1cc(C23CCC(COCc4c(-c5c(Cl)cccc5Cl)noc4C4CC4)(CC2)CO3)ccc1F [Example 202] | 390 nM
O=C(O)c1cccc(-c2noc(C34CCC(/C=C/c5c(-c6c(Cl)cncc6Cl)noc5C5CC5)(CC3)CO4)n2)c1 [Example 467, (E)-3-(5-(4-(2-(5-cyclopropyl-3-(3,5-dichloropyridin-4-yl)isoxazol-4-yl)vinyl)-2-oxabicyclo[2.2.2]octan-1-yl)-1,2,4-oxadiazol-3-yl)benzoic acid] | 260 nM
O=C(O)c1cc(C(F)(F)F)cc2nc(C34CCC(/C=C/c5c(-c6c(Cl)cncc6Cl)noc5C5CC5)(CC3)CC4)sc12 [Example 507, (E)-2-(4-(2-(5-cyclopropyl-3-(3,5-dichloropyridin-4-yl)isoxazol-4-yl)vinyl)bicyclo[2.2.2]octan-1-yl)-5-(trifluoromethyl)benzo[d]thiazole-7-carboxylic acid] | 20 nM
O=C(O)c1cc(-c2noc(C34CCC(OCc5c(-c6ccccc6C(F)(F)F)noc5C5CC5)(CC3)CC4)n2)ccn1 [Example 50] | 2100 nM
O=C(O)c1cc(C(F)(F)F)cc2nc(C34CCC(OCc5c(-c6c(Cl)cncc6Cl)noc5C5CC5)(CC3)CC4)sc12 [Example 434, 2-(4-((5-cyclopropyl-3-(3,5-dichloropyridin-4-yl)isoxazol-4-yl)methoxy)bicyclo[2.2.2]octan-1-yl)-5-(trifluoromethyl)benzo[d]thiazole-7-carboxylic acid] | 18 nM
O=C(O)c1cc(C(F)(F)F)c2cc(OCC34CCC(OCc5c(-c6c(Cl)cccc6Cl)noc5C5CC5)(CC3)CC4)ccc2n1 [Example 100, 6-((4-((5-cyclopropyl-3-(2,6-dichlorophenyl)isoxazol-4-yl)methoxy)bicyclo[2.2.2]octan-1-yl)methoxy)-4-(trifluoromethyl) quinoline-2-carboxylic acid] | 7 nM
COc1cc(C(=O)O)ccc1OCC12CCC(/C=C/c3c(-c4c(Cl)cncc4Cl)noc3C3CC3)(CC1)CC2 [Example 450, (E)-4-((4-(2-(5-cyclopropyl-3-(3,5-dichloropyridin-4-yl)isoxazol-4-yl)vinyl)bicyclo[2.2.2]octan-1-yl)methoxy)-3-methoxybenzoic acid] | 18 nM
COc1ccc(-c2noc(C34CCC(/C=C/c5c(-c6c(Cl)cncc6Cl)noc5C5CC5)(CC3)CO4)n2)cc1C(=O)O [Example 492, (E)-5-(5-(4-(2-(5-cyclopropyl-3-(3,5-dichloropyridin-4-yl)isoxazol-4-yl)vinyl)-2-oxabicyclo[2.2.2]octan-1-yl)-1,2,4-oxadiazol-3-yl)-2-methoxybenzoic acid] | 250 nM
CS(=O)(=O)NC(=O)c1ccc(-c2noc(C34CCC(OCc5c(-c6c(Cl)cccc6Cl)noc5C5CC5)(CC3)CC4)n2)cc1 [Example 3, 4-(5-(4-((5-cyclopropyl-3-(2,6-dichlorophenyl)isoxazol-4-yl)methoxy)bicyclo[2.2.2]octan-1-yl)-1,2,4-oxadiazol-3-yl)-N-(methylsulfonyl)benzamide] | 890 nM
Cn1nc(-c2nc(C34CCC(OCc5c(-c6c(Cl)cccc6Cl)noc5C5CC5)(CC3)CC4)no2)cc1C(=O)O [Example 70, 3-(3-(4-((5-Cyclopropyl-3-(2,6-dichlorophenyl)isoxazol-4-yl)methoxy)bicyclo[2.2.2]octan-1-yl)-1,2,4-oxadiazol-5-yl)-1-methyl-1H-pyrazole-5-carboxylic acid] | 430 nM
O=C(O)c1cc(C2CC2)c2cc(OCC34CCC(OCc5c(-c6c(Cl)cncc6Cl)noc5C5CC5)(CC3)CC4)cc(F)c2n1 [Example 311, 4-cyclopropyl-6-((4-((5-cyclopropyl-3-(3,5-dichloropyridin-4-yl)isoxazol-4-yl)methoxy)bicyclo[2.2.2]octan-1-yl)methoxy)-8-fluoroquinoline-2-carboxylic acid] | 9 nM
O=C(O)c1ccc(OCC23CCC(OCc4c(-c5c(Cl)cncc5Cl)noc4C4CC4)(CC2)CC3)c2ncccc12 [Example 302] | 54 nM
O=C(O)c1ccc(C23CCC(/C=C/c4c(-c5c(Cl)cncc5Cl)noc4C4CC4)(CC2)CO3)cc1 [Example 457, (E)-4-(4-(2-(5-cyclopropyl-3-(3,5-dichloropyridin-4-yl)isoxazol-4-yl)vinyl)-2-oxabicyclo[2.2.2]octan-1-yl)benzoic acid] | 87 nM
O=C(O)c1ccc2nc(C34CCC(OCc5c(-c6ccccc6OC(F)(F)F)noc5C5CC5)(CC3)CC4)sc2c1 [Example 38] | 360 nM
